# Measured values: ChEMBL document CHEMBL4184302 (Bioorg Med Chem Lett, 2018)
# Calls of active or inactive are those of the source. The rule behind the calls is not given here.
# Columns and labels:
# [1] = Inhibition of bacterial N-terminal His6-tagged VIM2 (27 to 266 residues) expressed in Escherichia coli BL21 DE3 pLysS cells using FC-5 as substrate pretreated for 10 mins followed by substrate addition measured every 60 secs by fluorescence assay; parameters: species or system Bacteria
# [2] = Inhibition of bacterial N-terminal His6-tagged NDM1 expressed in Escherichia coli BL21 DE3 pLysS cells using FC-5 as substrate pretreated for 10 mins followed by substrate addition measured every 60 secs by fluorescence assay; parameters: species or system Bacteria
# [3] = Inhibition of bacterial N-terminal His6-tagged TEM1 expressed in Escherichia coli BL21 DE3 pLysS cells using FC-5 as substrate pretreated for 10 mins followed by substrate addition measured every 60 secs by fluorescence assay; parameters: species or system Bacteria
# Bacteria [4] = assay: Reversible inhibition of bacterial N-terminal His6-tagged VIM2 (27 to 266 residues) expressed in Escherichia coli BL21 DE3 pLysS cells at 11 uM using FC-5 as substrate pretreated for 30 mins followed by substrate addition by jump-dilution method
# [5] = Inhibition of bacterial N-terminal His6-tagged VIM2 (27 to 266 residues) expressed in Escherichia coli BL21 DE3 pLysS cells using FC-5 as substrate pretreated for 10 mins followed by substrate addition by fluorescence assay; parameters: species or system Bacteria
# Escherichia coli [6] = assay: Potentiation of meropenem-induced antimicrobial activity against Escherichia coli BL21(DE3) assessed as meropenem MIC at 100 uM measured after 16 to 20 hrs by microdilution broth method (reference value: <0.125 mg/L); assay type: functional
# Escherichia coli [7] = assay: Potentiation of meropenem-induced antimicrobial activity against Escherichia coli BL21(DE3) harboring VIM-2 assessed as meropenem MIC at 10 uM measured after 16 to 20 hrs by microdilution broth method (reference value: 16 mg/L); assay type: functional
# Escherichia coli [8] = assay: Potentiation of meropenem-induced antimicrobial activity against Escherichia coli BL21(DE3) harboring VIM-2 assessed as meropenem MIC at 25 uM measured after 16 to 20 hrs by microdilution broth method (reference value: 16 mg/L); assay type: functional
# Escherichia coli [9] = assay: Potentiation of meropenem-induced antimicrobial activity against Escherichia coli BL21(DE3) assessed as meropenem MIC at 10 uM measured after 16 to 20 hrs by microdilution broth method (reference value: <0.125 mg/L); assay type: functional
# Bacteria [10] = assay: Reversible inhibition of bacterial N-terminal His6-tagged VIM2 (27 to 266 residues) expressed in Escherichia coli BL21 DE3 pLysS cells at 415 uM using FC-5 as substrate pretreated for 30 mins followed by substrate addition by jump-dilution method
# Escherichia coli [11] = assay: Potentiation of meropenem-induced antimicrobial activity against Escherichia coli BL21(DE3) assessed as meropenem MIC at 50 uM measured after 16 to 20 hrs by microdilution broth method (reference value: <0.125 mg/L); assay type: functional
# Escherichia coli [12] = assay: Potentiation of meropenem-induced antimicrobial activity against Escherichia coli BL21(DE3) harboring VIM-2 assessed as meropenem MIC at 50 uM measured after 16 to 20 hrs by microdilution broth method (reference value: 16 mg/L); assay type: functional
# Bacteria [13] = assay: Competitive inhibition of bacterial N-terminal His6-tagged VIM2 (27 to 266 residues) expressed in Escherichia coli BL21 DE3 pLysS cells using varying levels of FC-5 as substrate by fluorescence assay
# Escherichia coli [14] = assay: Potentiation of meropenem-induced antimicrobial activity against Escherichia coli BL21(DE3) assessed as meropenem MIC at 25 uM measured after 16 to 20 hrs by microdilution broth method (reference value: <0.125 mg/L); assay type: functional
# Escherichia coli [15] = assay: Potentiation of meropenem-induced antimicrobial activity against Escherichia coli BL21(DE3) harboring VIM-2 assessed as meropenem MIC at 100 uM measured after 16 to 20 hrs by microdilution broth method (reference value: 16 mg/L); assay type: functional
# [16] = Binding affinity to bacterial N-terminal His6-tagged VIM2 (27 to 266 residues) expressed in Escherichia coli BL21 DE3 pLysS cells by isothermal calorimetric method; parameters: species or system Bacteria
IC50 [5],SMILES,IC50 [1],pIC50 [1],IC50 [2],pIC50 [2],IC50 [3],pIC50 [3],inhibition (Bacteria [4]),MIC (Escherichia coli [6]),MIC (Escherichia coli [7]),MIC (Escherichia coli [8]),MIC (Escherichia coli [9]),inhibition (Bacteria [10]),MIC (Escherichia coli [11]),MIC (Escherichia coli [12]),inhibition (Bacteria [13]),MIC (Escherichia coli [14]),MIC (Escherichia coli [15]),Kd [16]
,O=C(O)[C@H](O)Cc1ccc(O)c(O)c1,> 600 µM,< 3.2,> 600 µM,< 3.2,189 µM,3.72,,,,,,,,,,,,
,O=C(O)/C=C/c1ccc(O)c(O)c1 [CAFFEIC ACID],> 600 µM,< 3.2,> 600 µM,< 3.2,> 600 µM,< 3.2,,,,,,,,,,,,
2.47 µM,C[C@H](CS)C(=O)N1CCC[C@H]1C(=O)O [CAPTOPRIL],,,,,,,Active,,,,,,,,,,,
,O=C(/C=C/c1ccc(O)c(O)c1)O[C@H](Cc1ccc(O)c(O)c1)C(=O)O [ROSMARINIC ACID],41.5 µM,4.38,> 600 µM,< 3.2,> 600 µM,< 3.2,,< 0.125 µg/mL,16 µg/mL,16 µg/mL,< 0.125 µg/mL,Active,< 0.125 µg/mL,8 µg/mL,Dose-dependent effect,< 0.125 µg/mL,8 µg/mL,10.2 µM
,O=C(/C=C/c1ccc(O)c(O)c1/C=C/c1ccc(O)c(O)c1)O[C@H](Cc1ccc(O)c(O)c1)C(=O)O [SALVIANOLIC ACID A],27.2 µM,4.57,160 µM,3.75 to 3.79,34.3 µM,4.46,,< 0.125 µg/mL,16 µg/mL,16 µg/mL,< 0.125 µg/mL,,< 0.125 µg/mL,4 µg/mL,,< 0.125 µg/mL,4 µg/mL,
